Experimental data taken from patent US4234691A (Yamasa Shoyu Kabushiki Kaisha, priority 1978, dated 1980).

T1: L-lysine α-oxidase (Trichoderma viride, UniProt A0A0G4DCU0)
T1 construct: mature processed form
T1 sequence (A0A0G4DCU0 77-617): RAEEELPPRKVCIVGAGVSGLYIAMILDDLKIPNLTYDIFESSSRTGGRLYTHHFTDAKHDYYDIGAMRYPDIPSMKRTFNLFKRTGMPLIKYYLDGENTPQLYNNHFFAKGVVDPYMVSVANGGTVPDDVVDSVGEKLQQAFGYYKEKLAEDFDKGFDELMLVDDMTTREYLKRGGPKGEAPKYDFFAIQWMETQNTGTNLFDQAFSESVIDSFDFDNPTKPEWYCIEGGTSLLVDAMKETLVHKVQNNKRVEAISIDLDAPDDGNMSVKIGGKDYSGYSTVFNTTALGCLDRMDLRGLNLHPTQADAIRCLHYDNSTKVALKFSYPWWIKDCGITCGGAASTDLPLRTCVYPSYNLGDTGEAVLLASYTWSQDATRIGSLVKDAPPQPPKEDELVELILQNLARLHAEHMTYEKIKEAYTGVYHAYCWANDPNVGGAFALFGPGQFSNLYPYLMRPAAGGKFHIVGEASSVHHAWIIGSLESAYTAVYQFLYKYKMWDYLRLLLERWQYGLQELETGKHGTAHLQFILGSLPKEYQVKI


molecular target: T1, L-lysine α-oxidase; assay: Substrate specificity, relative enzyme activity by oxygen-electrode method; type: biochemical; conditions: purified enzyme
Method: A variety of substrates listed in the following table were subjected to the action of the purified enzyme of the present invention, and the relative enzyme activities thereof were determined according to the oxygen-electrode method.
The activity of the present enzyme was measured in accordance with Soda's method (Analytical Biochemistry Vol. 25, p. 228, 1968) in the following manner. A reaction mixture consisting of 0.7 ml of 0.1 M potassium phosphate buffer (pH 8.0), 0.1 ml of catalase (750 U/ml), 0.1 ml of 0.1 M L-lysine solution and 0.1 ml of the present enzyme solution was incubated at 37° C. for 20 minutes with gentle shaking. After the incubation the reaction was terminated by the addition of 0.1 ml of 25% trichloroacetic acid. To the resulting reaction mixture were added 1.9 ml of 1 M acetate buffer (pH 5.0) and 0.8 ml of 0.1% 3-methyl-2-benzothiazolone hydrazone hydrochloride solution. The mixture was further incubated at 30° C. for 30 minutes and then allowed to cool to room temperature, after which measurement of optical density at 318 nm was carried out. The formed α-keto-ε -aminocaproic acid thus formed was determined from the resulting calibration curve. One unit of the enzyme was defined as the quantity of the enzyme catalyzing the formation of 1 μmol of α-keto-ε-aminocaproic acid at 37° C. per minute. The relative activity of the enzyme was also assayed by manometric and polarographic determination of the oxygen consumption.

Molecule | Activity of the enzyme to the amino acid (in words)
N=C(N)NCCC[C@H](N)C(=O)O [L-Arginine] | some activities
N[C@@H](Cc1c[nH]cn1)C(=O)O [L-Histidine] | some activities
NCCC[C@H](N)C(=O)O [L-Ornithine] | some activities
N[C@@H](Cc1ccccc1)C(=O)O [L-Phenylalanine] | some activities

same assay, conditions: substrate 10 mM, purified enzyme, L-Lysine = 100

Molecule | Relative activity (%)
NCCCCCC(N)C(=O)O (racemic) [D,L-Homolysine] | 31.1%
NCCC(N)C(=O)O (centres unmarked) [2,4-Diaminobutyric acid] | < 0.5%
NCCCCCN [Cadaverine] | < 0.5%
NCCCC[C@@H](N)C(=O)O [D-Lysine] | < 0.5%
NC(=O)NCCCC[C@H](N)C(=O)O [Homocitrulline] | < 0.5%
C[C@H](N)C(=O)O [L-Alanine] | < 0.5%
N=C(N)NCCC[C@H](N)C(=O)O [L-Arginine] | 6.1%
NC(=O)C[C@H](N)C(=O)O [L-Asparagine] | < 0.5%
N[C@@H](CC(=O)O)C(=O)O [L-Aspartic acid] | < 0.5%
NC(=O)NCCC[C@H](N)C(=O)O [L-Citrulline] | < 0.5%
N[C@@H](CS)C(=O)O [L-Cysteine] | < 0.5%
N[C@@H](CCC(=O)O)C(=O)O [L-Glutamic acid] | < 0.5%
NC(=O)CC[C@H](N)C(=O)O [L-Glutamine] | < 0.5%
NCC(=O)O [L-Glycine] | < 0.5%
N[C@@H](Cc1c[nH]cn1)C(=O)O [L-Histidine] | 3.8%
O=C(O)[C@@H]1C[C@@H](O)CN1 [L-Hydroxyproline] | < 0.5%
CC[C@H](C)[C@H](N)C(=O)O [L-Isoleucine] | < 0.5%
CC(C)C[C@H](N)C(=O)O [L-Leucine] | < 0.5%
CCOC(=O)[C@@H](N)CCCCN [L-Lysine ethyl ester] | 83.3%

Molecule | Relative activity (%)
NCCCC[C@H](N)C(=O)NO [L-Lysine hydroxamate] | 62.1%
NCCCC[C@H](N)C(=O)O [L-Lysine] | 100.0%
CSCC[C@H](N)C(=O)O [L-Methionine] | < 0.5%
NCCC[C@H](N)C(=O)O [L-Ornithine] | 18.2%
N[C@@H](Cc1ccccc1)C(=O)O [L-Phenylalanine] | 8.3%
O=C(O)[C@@H]1CCCN1 [L-Proline] | < 0.5%
N[C@@H](CO)C(=O)O [L-Serine] | < 0.5%
C[C@@H](O)[C@H](N)C(=O)O [L-Threonine] | < 0.5%
N[C@@H](Cc1c[nH]c2ccccc12)C(=O)O [L-Tryptophan] | < 0.5%
CC(C)[C@H](N)C(=O)O [L-Valine] | < 0.5%
NCCCCN [Putrescine] | < 0.5%
N[C@@H](CSCCc1ccncc1)C(=O)O [S-(β-4-Pyridylethyl)-L-cysteine] | 2.7%
NCCSC[C@H](N)C(=O)O [S-(β-Aminoethyl)-L-cysteine] | 9.8%
CC(N)CSC[C@H](N)C(=O)O (stereo partly drawn) [S-(β-Aminopropyl-L-cysteine] | 34.8%
NCC(N)C(=O)O (stereo not drawn) [α,β-Diaminopropionic acid] | < 0.5%
NCCCCC(=O)O [δ-Aminovareric acid] | < 0.5%
NCC(O)CC[C@H](N)C(=O)O (some centres unmarked) [δ-Hydroxy-lysine] | 37.1%
NCCCCCC(=O)O [ε-Aminocaproic acid] | < 0.5%
CC(=O)NCCCC[C@H](N)C(=O)O [ε-N-Acetyl-L-lysine] | < 0.5%

molecular target: T1, L-lysine α-oxidase; assay: Enzyme activity in the presence of metallic ions and additives (inhibition, activation, stabilization); type: biochemical; conditions: not given
Method: The enzyme activity was measured in the presence of various metallic ions and various additives. The activator has not been found. The enzyme was stabilized by sodium chloride, potassium chloride, phosphates and the like.

Molecule | Relative activity (%) in presence of inhibitors | Stabilization of the enzyme (in words)
O=C(O)CN(CCN(CC(=O)O)CC(=O)O)CC(=O)O [EDTA, Ethylenediaminetetraacetic acid] | 93.8% | –
N[C@@H](CCC(=O)N[C@@H](CS)C(=O)NCC(=O)O)C(=O)O [Glutathione] | 103.5% | –
[Cl-].[K+] [potassium chloride] | – | stabilized
[Cl-].[Na+] [sodium chloride] | – | stabilized
phosphates | – | stabilized

same assay, conditions: enzyme activity measured in presence of the additive

Molecule | Effect on enzyme activity (in words)
[Cu+2] [Cu] | inhibited
[Cl][Hg][Cl] [Mercuric chloride] | inhibited
O=C(O)c1cc[c]([Hg][Cl])cc1 [PCMB, para-Chloromercuribenzoic acid] | inhibited

same assay, conditions: inhibitor concentration not given

Molecule | Relative activity (%) in presence of inhibitors
N[C@@H](CS)C(=O)O [Cysteine] | 100.3%
[Cl][Hg][Cl] [Mercuric chloride] | 19.2%
CCN1C(=O)C=CC1=O [N-Ethylmaleimide] | 108.7%
O=C(O)c1cc[c]([Hg][Cl])cc1 [PCMB, para-Chloromercuribenzoic acid] | 42.9%
O=S(=O)(O)c1cc(O)c(O)c(S(=O)(=O)O)c1 [Tiron] | 96.5%

same assay, conditions: metallic ions 1mM

Molecule | Relative activity (%) in presence of metallic ions
[Ba+2] [Ba] | 100.0%
[Ca+2] [Ca] | 102.5%
[Co+2] [Co] | 91.6%
[Cu+2] [Cu] | 78.5%
[K+] [K] | 100.0%
[Li+] [Li] | 98.4%
[Mg+2] [Mg] | 99.6%
[Mn+2] [Mn] | 97.1%
[Zn+2] [Zn] | 92.7%

system: L5178 Y mouse leukemic cells; assay: not given; conditions: L5178Y cells, 10^5 cells/ml, 37° C., 48 hours
Method: In this experiment, the antitumor activity in vitro was determined by measuring the proliferation-inhibition activity against the cultured L5178 Y mouse leukemic cells. More specifically, 0.1 ml of the sample diluted with a phosphate-buffered saline (PBS) was added to 0.9 ml of the cultured L5178Y cell suspension (10^5 cells/ml) with the logarithmic growth phase. The mixture was incubated, at 37° C. for 48 hours in a carbon dioxide incubator, and then the number of the cells was measured by means of a microcell counter.

Molecule | Concentration giving complete inhibition of proliferation
L-lysine α-oxidase | 3.3 mU/ml

substrate: NCCC[C@H](N)C(=O)O; assay: purified protein, by the assay type; conditions: other: purified enzyme of Example 1

Molecule | Km
L-lysine α-oxidase (Trichoderma viride) (protein, mature processed form) RAEEELPPRKVCIVGAGVSGLYIAMILDDLKIPNLTYDIFESSSRTGGRLYTHHFTDAKHDYYDIGAMRYPDIPSMKRTFNLFKRTGMPLIKYYLDGENTPQLYNNHFFAKGVVDPYMVSVANGGTVPDDVVDSVGEKLQQAFGYYKEKLAEDFDKGFDELMLVDDMTTREYLKRGGPKGEAPKYDFFAIQWMETQNTGTNLFDQAFSESVIDSFDFDNPTKPEWYCIEGGTSLLVDAMKETLVHKVQNNKRVEAISIDLDAPDDGNMSVKIGGKDYSGYSTVFNTTALGCLDRMDLRGLNLHPTQADAIRCLHYDNSTKVALKFSYPWWIKDCGITCGGAASTDLPLRTCVYPSYNLGDTGEAVLLASYTWSQDATRIGSLVKDAPPQPPKEDELVELILQNLARLHAEHMTYEKIKEAYTGVYHAYCWANDPNVGGAFALFGPGQFSNLYPYLMRPAAGGKFHIVGEASSVHHAWIIGSLESAYTAVYQFLYKYKMWDYLRLLLERWQYGLQELETGKHGTAHLQFILGSLPKEYQVKI | 440 µM

substrate: NCCCC[C@H](N)C(=O)O; assay: Km values of the enzyme for amino acids; type: biochemical, Trichoderma viride; conditions: other: purified enzyme of Example 1

Molecule | Km
L-lysine α-oxidase (Trichoderma viride) (protein, mature processed form) RAEEELPPRKVCIVGAGVSGLYIAMILDDLKIPNLTYDIFESSSRTGGRLYTHHFTDAKHDYYDIGAMRYPDIPSMKRTFNLFKRTGMPLIKYYLDGENTPQLYNNHFFAKGVVDPYMVSVANGGTVPDDVVDSVGEKLQQAFGYYKEKLAEDFDKGFDELMLVDDMTTREYLKRGGPKGEAPKYDFFAIQWMETQNTGTNLFDQAFSESVIDSFDFDNPTKPEWYCIEGGTSLLVDAMKETLVHKVQNNKRVEAISIDLDAPDDGNMSVKIGGKDYSGYSTVFNTTALGCLDRMDLRGLNLHPTQADAIRCLHYDNSTKVALKFSYPWWIKDCGITCGGAASTDLPLRTCVYPSYNLGDTGEAVLLASYTWSQDATRIGSLVKDAPPQPPKEDELVELILQNLARLHAEHMTYEKIKEAYTGVYHAYCWANDPNVGGAFALFGPGQFSNLYPYLMRPAAGGKFHIVGEASSVHHAWIIGSLESAYTAVYQFLYKYKMWDYLRLLLERWQYGLQELETGKHGTAHLQFILGSLPKEYQVKI | 40 µM

substrate: N[C@@H](Cc1ccccc1)C(=O)O; assay: Km values of the enzyme for amino acids; type: biochemical, Trichoderma viride; conditions: other: purified enzyme of Example 1

Molecule | Km
L-lysine α-oxidase (Trichoderma viride) (protein, mature processed form) RAEEELPPRKVCIVGAGVSGLYIAMILDDLKIPNLTYDIFESSSRTGGRLYTHHFTDAKHDYYDIGAMRYPDIPSMKRTFNLFKRTGMPLIKYYLDGENTPQLYNNHFFAKGVVDPYMVSVANGGTVPDDVVDSVGEKLQQAFGYYKEKLAEDFDKGFDELMLVDDMTTREYLKRGGPKGEAPKYDFFAIQWMETQNTGTNLFDQAFSESVIDSFDFDNPTKPEWYCIEGGTSLLVDAMKETLVHKVQNNKRVEAISIDLDAPDDGNMSVKIGGKDYSGYSTVFNTTALGCLDRMDLRGLNLHPTQADAIRCLHYDNSTKVALKFSYPWWIKDCGITCGGAASTDLPLRTCVYPSYNLGDTGEAVLLASYTWSQDATRIGSLVKDAPPQPPKEDELVELILQNLARLHAEHMTYEKIKEAYTGVYHAYCWANDPNVGGAFALFGPGQFSNLYPYLMRPAAGGKFHIVGEASSVHHAWIIGSLESAYTAVYQFLYKYKMWDYLRLLLERWQYGLQELETGKHGTAHLQFILGSLPKEYQVKI | 14000 µM
